Key:
IL-1β = IL-1β ELISA in human corneal endothelial grafts exposed to TNF-α and IFN-γ; format: cell-based; conditions: Ac-YVAD-cmk 30 ng/ml, TNF-α 100 ng/ml + IFN-γ 100 ng/ml, 48 hours; vs exposed grafts
Procedure: (§1) Endothelial grafts were isolated from corneal tissue grafts stored in Optisol GS (Bausch & Lomb; Rochester, New York, USA) and transferred to 24-well plates in DMEM/F12 medium (Gibco, Invitrogen Thermo Fisher, Carlsbad, CA, USA) supplemented with 5% fetal bovine serum (Gibco, Invitrogen Thermo Fisher, Carlsbad, CA, USA) and incubated at 37° C. for 48 hours to stabilize the cells following hypothermic storage. Medium was replaced and endothelial grafts were treated with TNF-α (100 ng/ml, R&D Systems, Minneapolis, MN, USA) and IFN-γ (100 ng/ml, Systems, Minneapolis, MN, USA)^34 and were incubated at 37° C. for 48 hours. Caspase-1 inhibitor, Ac-YVAD-cmk (30 ng/ml, InvivoGen, San Diego, CA, USA) was used to inhibit the inflammasome in CEC.
(§2) To study the expression of inflammasome signaling proteins in endothelial grafts, cells were treated with TNF-α and IFN-γ for 48 hours. Treated endothelial grafts were placed on […] of lysis buffer with protease inhibitor cocktail (Sigma) and Caspase-1 and […] levels were measure by SimpleStep ELISA™ kit (Abcam; Cambridge, UK) according to the manufacturer's instructions. Caspase-1 and IL-1β protein levels were determined by measuring the fluorescence intensity using a microplate reader (SpectraMax iD3, Molecular Device, San Jose, CA, USA) with excitation and emission wavelengths set at 485 and 535 nm, respectively. […]

human CEC [1] = experiment: Intracellular ROS detection (DCF-DA) in corneal endothelial grafts exposed to TNF-α and IFN-γ; format: cell-based; conditions: Ac-YVAD-cmk 30 ng/ml, 48 hours, p<0.001
Procedure: as §1
Measurement of intracellular ROS levels was performed using a 2,7-dichlorofluorescein diacetate (DCF-DA) Cellular Reactive Oxygen Species Detection Assay Kit (Abcam, Cambridge, UK) according to the manufacturer's instructions as described in^36. Endothelial grafts were incubated with 10 μM DCF-DA at 37° C. for 45 min. Then, ROS level was determined by measuring the fluorescence intensity using a microplate reader (SpectraMax iD3, Molecular Device, San Jose, CA, USA) with excitation and emission wavelengths set at 485 and 535 nm, respectively. Tert-butyl hydrogen peroxide (TBHP) was used as the positive control. […]

caspase-1 [2] = experiment: Caspase-1 immunofluorescence in corneal endothelial grafts exposed to TNF-α and IFN-γ; format: cell-based, human; conditions: Ac-YVAD-cmk 30 ng/ml, TNF-α 100 ng/ml + IFN-γ 100 ng/ml, 48 hours
Procedure: as §1
(§3) Endothelial grafts were fixed with 4% paraformaldehyde for 10 minutes at room temperature and washed with PBS. For immunofluorescence staining, samples were permeabilized with 0.3% Triton X-100 in PBS for 15 minutes and blocked with Image-iT FX signal enhancer (Invitrogen ThermoFisher Scientific; Carlsbad, CA, USA) for 30 minutes at room temperature. Isotype-matched nonspecific IgG antibodies were used as controls. […] Stained samples were examined using an inverted fluorescence microscope (BZ-X800 Analyzer, KEYENCE, Osaka, Japan). Images were analyzed using BZ-X-Analyzer software (KEYENCE, Osaka, Japan).

GSDM-D = GSDM-D immunofluorescence in corneal endothelial grafts exposed to TNF-α and IFN-γ; format: cell-based, human; conditions: Ac-YVAD-cmk, TNF-α 100 ng/ml + IFN-γ 100 ng/ml, 48 hours
Procedure: as §1, §3

caspase-1 [3] = experiment: siRNA inflammasome inhibitor in vitro assay: caspase-1 SimpleStep ELISA in HCEC-B4G12 cells; format: cell-based, human; conditions: HCEC-B4G12, YVAD 30 ng/ml, TNFα and INFγ, 72 hours; vs positive control cells treated only with TNFα and INFγ
Procedure: HCEC-B4G12 (Human Corneal Endothelial Cell Line) cells were obtained from Leibniz Institute DSMZ and maintained in Endothelial SFM supplemented with FGF 10 ng/ml in a humidified incubator under an atmosphere of 5% CO2/95% air at 37° C. For transfection, cells were seeded in 12 well culture plates until cultures reached 95-100% confluence. The cells were then transfected with 1 μM ASC siRNAs using siPORT NeoFX Transfection Agent (Invitrogen) following the manufacturer protocol.
Transfection efficiency was estimated by assessing the amount of Block-it Alexa Fluor green fluorescent oligonucleotide (Invitrogen) present inside cells in control cultures 24 and 72 hours after transfection. […] Following the 72 hours treated endothelial cells were placed on 150 μL of lysis buffer with protease inhibitor cocktail (Sigma), and caspase-1 levels were measured by SimpleStep ELISA™ kit (Abcam; Cambridge, UK) according to the manufacturer's instructions. Caspase-1 protein levels were determined by measuring the fluorescence intensity using a microplate reader (SpectraMax iD3, Molecular Device, San Jose, CA, USA) with excitation and emission wavelengths set at 485 and 535 nm, respectively. […]
Caspase-1 levels were analyzed by SimpleStep ELISA after 72 hours of treatment with either YVAD (30 ng/ml) or ASC siRNA (1 μM) transfection, both sets of cells underwent inflammation induction with TNFα and INFγ. […]

human CEC [4] = experiment: Lactate dehydrogenase (LDH) release assay in corneal endothelial grafts exposed to TNF-α and IFN-γ; format: cell-based; conditions: supernatant of grafts exposed to TNF-α and IFN-γ, Ac-YVAD-cmk 30 ng/ml, 48 hours; p<0.05
Procedure: as §1
Cytotoxicity of CEC after TNF-α, IFN-γ treatment was assessed by LDH release assay. LDH release assay was measure using a CytoTox 96® Non-Radioactive Cytotoxicity Assay kit (Promega, Madison, WI, USA) performed according to the manufacturer's instructions as described in^35. The absorbance was measured using a microplate reader (SpectraMax iD3, Molecular Device, San Jose, CA, USA) with excitation and emission wavelengths set at 490 nm.

caspase-1 [5] = experiment: Caspase-1 ELISA in human corneal endothelial grafts exposed to TNF-α and IFN-γ; format: cell-based; conditions: Ac-YVAD-cmk 30 ng/ml, TNF-α 100 ng/ml + IFN-γ 100 ng/ml, 48 hours; vs exposed and control non-exposed grafts, p<0.0001
Procedure: as §1, §2

Substance: Ac-YVAD-cmk
- IL-1β levels (ELISA) (IL-1β): did not show significantly lower levels of IL-1β
- ROS levels (human CEC [1]): significantly downregulated
- caspase-1 expression (immunofluorescence) (caspase-1 [2]): lower expression of caspase-1
- intracellular (cytoplasmic) immunoreactivity of GSDM-D (GSDM-D): inhibited
- decrease of caspase-1 levels (caspase-1 [3]): about 41%
- LDH levels (LDH release, cell death) (human CEC [4]): significantly downregulated
- caspase-1 levels (ELISA) (caspase-1 [5]): significantly lower levels of caspase-1
